Assay results: publication PMC10530362, “Light-Sensitive Open Channel Block of Ionotropic Glutamate Receptors by Quaternary Ammonium Azobenzene Derivatives” (International Journal of Molecular Sciences, 2023)

Experiments:
[1] = system: T1, NMDA receptors (native, hippocampal CA1 pyramidal neurons); experiment: whole-cell patch clamp, NMDA-evoked steady-state current; format: cell-based, Rattus norvegicus; conditions: dark (trans), -70 mV, 100 µM NMDA + 10 µM glycine, pH 7.4, 22-24 °C; voltage-dependent foot-in-the-door pore block; unit inferred, µM from context
T1 construct: gene Grin1; native heteromeric receptor in isolated rat CA1 pyramidal neurons

[2] = system: T2, calcium-permeable AMPA receptors (native, giant cholinergic interneurons of the striatum); experiment: whole-cell patch clamp, kainate-evoked current; format: cell-based, Rattus norvegicus; conditions: dark (trans), -70 mV, 100 µM kainate, pH 7.4, 22-24 °C; open channel pore block plus minor voltage-independent site; unit inferred, µM from context
T2 construct: gene Gria1; native GluA2(R)-lacking receptors in isolated rat striatal giant interneurons

Row | Compound | IC50 [1] [µM] | IC50 [2] [µM]
1 | C=CC(=O)Nc1ccc(/N=N/c2ccc(NC(=O)C[N+](CC)(CC)CC)cc2)cc1 [AAQ] | 19 ± 1.4 | 28.5 ± 1.1
2 | CC[N+](CC)(CC)CC(=O)Nc1ccc(N=Nc2ccc(NC(=O)C[N+](CC)(CC)CC)cc2)cc1 [QAQ] | 18.6 ± 1 | 17 ± 2
